What was measured:
human TLR7 = molecular target: T1, human TLR7 (Homo sapiens, UniProt Q9NYK1); assay: HEK293-Blue-hTLR-7 cells assay (SEAP reporter, R848 stimulation); format: cell-based; conditions: HEK293-Blue-hTLR7 cells, R848, 20 hrs incubation; read-out: HEK/hTLR7 IC50
T1 sequence (Q9NYK1 27-1049): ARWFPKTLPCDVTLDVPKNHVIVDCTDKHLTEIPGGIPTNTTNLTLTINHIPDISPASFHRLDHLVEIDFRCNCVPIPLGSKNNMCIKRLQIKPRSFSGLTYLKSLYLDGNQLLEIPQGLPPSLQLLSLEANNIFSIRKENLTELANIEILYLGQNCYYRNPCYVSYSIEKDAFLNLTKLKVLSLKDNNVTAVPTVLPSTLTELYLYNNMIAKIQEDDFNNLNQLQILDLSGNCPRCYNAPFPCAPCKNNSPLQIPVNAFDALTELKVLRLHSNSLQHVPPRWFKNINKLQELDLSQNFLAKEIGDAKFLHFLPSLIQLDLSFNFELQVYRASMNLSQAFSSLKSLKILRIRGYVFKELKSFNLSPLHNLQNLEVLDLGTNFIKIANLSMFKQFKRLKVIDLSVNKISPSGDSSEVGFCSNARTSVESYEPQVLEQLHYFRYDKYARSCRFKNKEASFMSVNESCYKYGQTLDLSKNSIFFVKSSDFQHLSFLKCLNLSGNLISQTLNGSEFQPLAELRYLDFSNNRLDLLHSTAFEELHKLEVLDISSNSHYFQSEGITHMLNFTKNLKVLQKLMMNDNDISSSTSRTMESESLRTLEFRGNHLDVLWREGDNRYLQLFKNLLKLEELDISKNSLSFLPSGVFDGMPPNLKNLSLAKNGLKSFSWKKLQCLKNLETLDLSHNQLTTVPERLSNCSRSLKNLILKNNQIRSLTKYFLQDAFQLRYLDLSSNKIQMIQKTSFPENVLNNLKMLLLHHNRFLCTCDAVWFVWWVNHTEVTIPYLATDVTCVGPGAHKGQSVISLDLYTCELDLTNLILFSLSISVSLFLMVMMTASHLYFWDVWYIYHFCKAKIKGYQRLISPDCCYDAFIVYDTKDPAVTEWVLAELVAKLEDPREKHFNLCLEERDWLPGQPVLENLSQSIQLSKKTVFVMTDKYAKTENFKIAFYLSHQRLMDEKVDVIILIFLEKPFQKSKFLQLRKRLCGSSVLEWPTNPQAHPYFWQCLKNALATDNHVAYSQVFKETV
Description: The following tests were carried out in order to determine the activity of the compounds of formula (I), (Ia) or (Ib) in HEK293-Blue-hTLR-7/8/9 cells assay.
HEK293-Blue-hTLR-7 Cells Assay:
A stable HEK293-Blue-hTLR-7 cell line was purchased from InvivoGen (Cat.#: hkb-htlr7, San Diego, Calif., USA). These cells were originally designed for studying the stimulation of human TLR7 by monitoring the activation of NF-κB. A SEAP (secreted embryonic alkaline phosphatase) reporter gene was placed under the control of the IFN-β minimal promoter fused to five NF-κB and AP-1-binding sites. The SEAP was induced by activating NF-κB and AP-1 via stimulating HEK-Blue hTLR7 cells with TLR7 ligands. Therefore the reporter expression was declined by TLR7 antagonist under the stimulation of a ligand, such as R848 (Resiquimod), for incubation of 20 hrs. The cell culture supernatant SEAP reporter activity was determined using QUANTI-Blue™ kit (Cat.#: rep-qb1, Invivogen, San Diego, Ca, USA) at a wavelength of 640 nm, a detection medium that turns purple or blue in the presence of alkaline phosphatase.
HEK293-Blue-hTLR7 cells were incubated at a density of 250,000˜450,000 cells/mL in a volume of 170 μL in a 96-well plate in Dulbecco's Modified Eagle's medium (DMEM) containing 4.5 g/L glucose, 50 U/mL penicillin, […], […], 2 mM L-glutamine, 10% (v/v) heat-inactivated fetal bovine serum with addition of 20 μL test compound in a serial dilution in the presence of final DMSO at 1% and 10 μL of 20 uM R848 in above DMEM, perform incubation under 37° C. in a CO2 incubator for 20 hrs. Then 20 μL of the supernatant from each well was incubated with 180 μL Quanti-blue substrate solution at 37° C. for 2 hrs and the absorbance was read at 620-655 nm using a spectrophotometer. The signaling pathway that TLR7 activation leads to downstream NF-κB activation has been widely accepted, and therefore similar reporter assay was modified for evaluating TLR7 antagonist.

[1] = Human microsomal stability assay; format: in vitro ADME; conditions: human liver microsomes, 1 μM test compound, 0.5 mg/mL protein, 37° C.; low <7.0, medium 7.0-16.2, high 16.2-23.2 mL/min/kg
Description: Human Microsomal Stability Assay
Human liver microsomes (Cat.NO.: 452117, Corning, USA) were preincubated with test compound for 10 minutes at 37° C. in 100 mM potassium phosphate buffer, pH 7.4. The reactions were initiated by adding NADPH regenerating system. The final incubation mixtures contained 1 μM test compound, 0.5 mg/mL liver microsomal protein, 1 mM MgCl2, 1 mM NADP, 1 unit/mL isocitric dehydrogenase and 6 mM isocitric acid in 100 mM potassium phosphate buffer, pH 7.4. After incubation times of 0, 3, 6, 9, 15 and 30 minutes at 37° C., 300 μL of cold ACN (including internal standard) was added to 100 μL incubation mixture to terminate the reaction. Following precipitation and centrifugation, 100 uL supernatant will be taken out and added 300 uL water. The amount of compound remaining in the samples was determined by LC-MS/MS. Controls of no NADPH regenerating system at zero and 30 minutes were also prepared and analyzed. The results were categorized as: low (<7.0 mL/min/kg), medium (7.0-16.2 mL/min/kg) and high (16.2-23.2 mL/min/kg).

IC50 (human TLR7) [nM] | CL(h) [1] [mL/min/kg] | SMILES
18.6 | 8.7 | C[C@@H]1CN(c2ccc(C#N)c3ncccc23)C[C@@H]2Cc3cc(N4CCN(C(=O)[C@]5(C)CCCN5)CC4)ccc3CN21 [Example 14, 5-[(4R,11aS)-4-methyl-9-[4-[(2S)-2-methylpyrrolidine-2-carbonyl]piperazin-1-yl]-1,3,4,6,11,11a-hexahydropyrazino[1,2-b]isoquinolin-2-yl]quinoline-8-carbonitrile]
10.3 | – | C[C@@H]1CN(c2ccc(C#N)c3ncccc23)C[C@@H]2Cc3cc(N4C[C@H]5CNCCN5C4=O)ccc3CN21 (single isomer, unassigned) [Example 17B]
71.6 | – | C[C@@H]1CN(c2ccc(C#N)c3ncccc23)C[C@@H]2Cc3cc(N4CC5CCNCC5C4=O)ccc3CN21 (stereo partly drawn) [Example 18, 5-[(4R,11aS)-4-methyl-9-(3-oxo-3a,4,5,6,7,7a-hexahydro-1H-pyrrolo[3,4-c]pyridin-2-yl)-1,3,4,6,11,11a-hexahydropyrazino[1,2-b]isoquinolin-2-yl]quinoline-8-carbonitrile]
2.9 | 6.8 | C[C@@H]1CN(c2ccc(C#N)c3ncccc23)C[C@@H]2Cc3cc(N4CC(N)CC4=O)ccc3CN21 (stereo partly drawn) [Example 16, 5-[(4R,11aS)-9-(4-amino-2-oxo-pyrrolidin-1-yl)-4-methyl-1,3,4,6,11,11a-hexahydropyrazino[1,2-b]isoquinolin-2-yl]quinoline-8-carbonitrile]
35.5 | 9.6 | C[C@@H]1CN(c2ccc(C#N)c3ncccc23)C[C@@H]2Cc3cc(N4C[C@@H](F)[C@@H](N)C4)ccc3CN21 [Example 8, 5-[(4R,11aS)-9-[(3S,4R)-3-amino-4-fluoro-pyrrolidin-1-yl]-4-methyl-1,3,4,6,11,11a-hexahydropyrazino[1,2-b]isoquinolin-2-yl]quinoline-8-carbonitrile]
5.8 | – | C[C@@H]1CN(c2ccc(C#N)c3ncccc23)C[C@@H]2Cc3cc(OCCN(C)C)ccc3CN21 [Example 11, 5-[(4R,11aS)-9-[2-(dimethylamino)ethoxy]-4-methyl-1,3,4,6,11,11a-hexahydropyrazino[1,2-b]isoquinolin-2-yl]quinoline-8-carbonitrile]
38.2 | – | C[C@@H]1CN(c2ccc(C#N)c3ncccc23)C[C@@H]2Cc3ccc(OCCN(C)C)cc3CN21 [Example 5, 5-[(4R,11aS)-8-[2-(dimethylamino)ethoxy]-4-methyl-1,3,4,6,11,11a-hexahydropyrazino[1,2-b]isoquinolin-2-yl]quinoline-8-carbonitrile]
19.5 | 8.8 | CO[C@H]1CN(c2ccc3c(c2)C[C@H]2CN(c4ccc(C#N)c5ncccc45)C[C@@H](C)N2C3)C[C@H]1N [Example 9, 5-[(4R,11aS)-9-[(3R,4S)-3-amino-4-methoxy-pyrrolidin-1-yl]-4-methyl-1,3,4,6,11,11a-hexahydropyrazino[1,2-b]isoquinolin-2-yl]quinoline-8-carbonitrile]
18.6 | 7.6 | C[C@@H]1CN(c2ccc(C#N)c3ncccc23)C[C@@H]2Cc3cc(N4CCN(C(=O)C(C)(C)N)CC4)ccc3CN21 [Example 13, 5-[(4R,11aS)-9-[4-(2-amino-2-methyl-propanoyl)piperazin-1-yl]-4-methyl-1,3,4,6,11,11a-hexahydropyrazino[1,2-b]isoquinolin-2-yl]quinoline-8-carbonitrile]
18.2 | – | C[C@@H]1CN(c2ccc(C#N)c3ncccc23)C[C@@H]2Cc3cc(OC[C@@H]4CCN4)ccc3CN21 [Example 12, 5-[(4R,11aS)-9-[[(2S)-azetidin-2-yl]methoxy]-4-methyl-1,3,4,6,11,11a-hexahydropyrazino[1,2-b]isoquinolin-2-yl]quinoline-8-carbonitrile]
27.4 | – | CO[C@H]1CNC[C@H]1Nc1ccc2c(c1)C[C@H]1CN(c3ccc(C#N)c4ncccc34)C[C@@H](C)N1C2 [Example 7, 5-[(4R,11aS)-9-[[(3R,4S)-4-methoxypyrrolidin-3-yl]amino]-4-methyl-1,3,4,6,11,11a-hexahydropyrazino[1,2-b]isoquinolin-2-yl]quinoline-8-carbonitrile]
2.4 | – | C[C@@H]1CN(c2ccc(C#N)c3ncccc23)C[C@@H]2Cc3cc(N4C[C@@H]5C[C@H]4CN5C(=O)C(C)(C)N)ccc3CN21 [Example 15, 5-[(4R,11aS)-9-[(1S,4S)-5-(2-amino-2-methyl-propanoyl)-2,5-diazabicyclo[2.2.1]heptan-2-yl]-4-methyl-1,3,4,6,11,11a-hexahydropyrazino[1,2-b]isoquinolin-2-yl]quinoline-8-carbonitrile]
53.1 | – | C[C@@H]1CN(c2ccc(C#N)c3ncccc23)C[C@@H]2Cc3cc(N4CC5CNCCC5C4=O)ccc3CN21 (stereo partly drawn) [Example 19, 5-[(4R,11aS)-4-methyl-9-(1-oxo-3a,4,5,6,7,7a-hexahydro-3H-pyrrolo[3,4-c]pyridin-2-yl)-1,3,4,6,11,11a-hexahydropyrazino[1,2-b]isoquinolin-2-yl]quinoline-8-carbonitrile]
53.1 | – | C[C@@H]1CN(c2ccc(C#N)c3ncccc23)C[C@@H]2Cc3ccc(NCCN4CC[C@H](O)C4)cc3CN21 [Example 2, 5-[(4R,11aS)-8-[2-[(3S)-3-hydroxypyrrolidin-1-yl]ethylamino]-4-methyl-1,3,4,6,11,11a-hexahydropyrazino[1,2-b]isoquinolin-2-yl]quinoline-8-carbonitrile]
71.6 | – | C[C@@H]1CN(c2ccc(C#N)c3ncccc23)C[C@@H]2Cc3ccc(N4CCOCC(N)C4)cc3CN21 (stereo partly drawn) [Example 1, 5-[(4R,11aS)-8-(6-amino-1,4-oxazepan-4-yl)-4-methyl-1,3,4,6,11,11a-hexahydropyrazino[1,2-b]isoquinolin-2-yl]quinoline-8-carbonitrile]
10.3 | – | C[C@@H]1CN(c2ccc(C#N)c3ncccc23)C[C@@H]2Cc3cc(N4C[C@@H]5CNCCN5C4=O)ccc3CN21 (single isomer, unassigned) [Example 17A]
24.7 | 6.8 | C[C@@H]1CN(c2ccc(C#N)c3ncccc23)C[C@@H]2Cc3cc(N[C@@H]4CNC[C@@H]4F)ccc3CN21 [Example 6, 5-[(4R,11aS)-4-methyl-9-[[(3R,4S)-4-fluoropyrrolidin-3-yl]amino]-1,3,4,6,11,11a-hexahydropyrazino[1,2-b]isoquinolin-2-yl]quinoline-8-carbonitrile]
